Legend:
[1] = tested on: Amblyomma hebraeum or variegatum (nymphs); assay: Arena test in vitro against Amblyomma hebraeum or variegatum (nymphs); format: in vivo; conditions: even up to a dilution of 3.2 μg/cm^2
Description: (§1) This method is carried out in titre plates having 6 wells with a cross-section of 5 cm each, using a computer-supported video system. Each well of the titre plate is lined with a circular filter paper or another suitable carrier material. The substance of formula I to be tested is dissolved in methanol, acetonitrile or another suitable solvent, with ultrasound treatment and heating being employed for poorly-soluble substances. In an amount of 1 to 100 μg/cm^2, the dissolved test substance is placed in the centre of the filter paper on a quadrant or circular area of ca. 2.4 cm^2 radius. 4 of the 6 wells are filled with different test substances or with the same test substance in different dilutions (e.g. 1, 3.2, 5, 10 and 20 μg/cm^2). The 5th well is treated with DEET (N,N-diethyl-m-toluamide) as standard substance. The 6th well is filled with the pure solvent and serves as a control. 60 to 100 larvae or 25 to 50 nymphs or 10 to 25 adults of the parasite to be tested, e.g. ticks, are added to each filter paper, and the system is covered with a pane of glass and positioned under a video camera. At intervals of 5 seconds, the video camera takes individual pictures of all 6 wells. For a qualitative evaluation, these images are observed in a time-lapse as a continuous film, optically following the movements of the parasites on the filter paper and comparing them with the movements in the control well no. 6 or with the standard in the 5th well. A qualitative observation is thus made as to whether the test parasites move evenly over the whole surface of the filter paper and ignore the test substance, or whether and over what period they avoid the treated zone, and what influence the dilution of the test substance has on the behaviour of the test parasites. In this way, neutral and repellent substances are determined. At the same time, the duration of activity of the test substance is determined and compared with that of the standard. […] This frequency is evaluated statistically and thus quantitatively by the Willcoxon method in a comparison with the control and with the standard. […]

[2] = tested on: Boophilus microplus Biarra (larvae); assay: Arena test in vitro against Boophilus microplus Biarra (larvae); format: in vivo; conditions: even up to a dilution of 3.2 μg/cm^2
Description: as §1

[3] = tested on: Rhipicephalus sanguineus (nymphs); assay: Arena test in vitro against Rhipicephalus sanguineus (nymphs); format: in vivo; conditions: even up to a dilution of 3.2 μg/cm^2
Description: as §1

ticks = assay: Arena test method for testing vermin-repellent substances; format: in vivo; conditions: 1 to 100 μg/cm^2 on filter paper, video evaluation versus control and DEET
Description: Arena Test Method for Testing Vermin-repellent Substances
This method is carried out in titre plates having 6 wells with a cross-section of 5 cm each, using a computer-supported video system. Each well of the titre plate is lined with a circular filter paper or another suitable carrier material. The substance of formula I to be tested is dissolved in methanol, acetonitrile or another suitable solvent, with ultrasound treatment and heating being employed for poorly-soluble substances. In an amount of 1 to 100 μg/cm^2, the dissolved test substance is placed in the centre of the filter paper on a quadrant or circular area of ca. 2.4 cm^2 radius. 4 of the 6 wells are filled with different test substances or with the same test substance in different dilutions (e.g. 1, 3.2, 5, 10 and 20 μg/cm^2). The 5th well is treated with DEET (N,N-diethyl-m-toluamide) as standard substance. The 6th well is filled with the pure solvent and serves as a control. […] In this way, neutral and repellent substances are determined. At the same time, the duration of activity of the test substance is determined and compared with that of the standard. […] This frequency is evaluated statistically and thus quantitatively by the Willcoxon method in a comparison with the control and with the standard. […]

vermin = conditions: cited from earlier work

| Structure (SMILES) | long-term activity against Amblyomma nymphs [1] | long-term activity against Boophilus larvae [2] | long-term activity against Rhipicephalus sanguineus nymphs [3] | repellent activity in arena test (ticks) | time after which it has to be reapplied (volatilizes rather rapidly) (vermin) |
| --- | --- | --- | --- | --- | --- |
| OC(c1ccccc1)C1CCCN1 (stereo not drawn) [Compound 1.31, 2-[(1-phenyl)(1-hydroxy)methyl]pyrrolidine] | Particularly marked long-term activity | Particularly marked long-term activity | Particularly marked long-term activity | – | – |
| OC(c1ccc(Cl)cc1)C1CCCN1 (stereo not drawn) [Compound 1.45, 2-[(1-[4-chorophenyl])(1-hydroxy)methyl]pyrrolidine] | Particularly marked long-term activity | Particularly marked long-term activity | Particularly marked long-term activity | excellent activity | – |
| Cc1ccc(C(O)C2CCC(C)(C)N2)c(C)c1 (stereo not drawn) [Compound 1.55, 2-[(1-[2,4-dimethylphenyl])(1-hydroxy)methyl]-5,5-dimethyl-pyrrolidine] | Particularly marked long-term activity | Particularly marked long-term activity | Particularly marked long-term activity | excellent activity | – |
| CCN(CC)C(=O)c1cccc(C)c1 [DEET, N,N-diethyl-m-toluamide] | – | – | – | – | ca. 2 hours |
